This test addresses T1, somatostatin receptors (Rattus norvegicus, UniProt P30680).
T1 construct: endogenous in cells; host or cells: AR42J rat pancreatic tumor cell membranes
In words: Inhibition of binding of (125I-Tyr11)somatostatin-14 to AR42J rat pancreatic tumor cell membranes. The following applies: displacement of (125I-Tyr11)somatostatin-14, AR42J cell membranes. Here is the method: Inhibition of Binding of (^125 I-Tyr^11)somatostatin-14 to AR42J Rat Pancreatic Tumor Cell Membranes
The rat pancreatic tumor cell line AR42J which expresses the somatostatin receptor was cultured in Dulbecco's minimal essential media (DMEM) supplemented with 10% fetal bovine serum (FBS) and 8 mM glutamine in a humdified 5% CO2 atmosphere at 37° C. in T-flasks. Harvested cells were homogenized in cold 50 mM Tris-HCl buffer (pH 7.4) and the homogenate then centrifuged at 39,000g for 10 min at 4° C. Pellets were washed once with buffer and then resuspended in an ice-cold solution of 10mM Tris-HCl (pH 7.4). Equal aliquots of this cell membrane preparation were incubated with (^125 I-Tyr^11)somatostatin-14 (at a final concentration of 0.5nM and 750,000cpm/mL, at a specific activity of 2000Ci/mmol, Amersham, Arlington Heights, Ill.) and peptide at a final concentration of from 10^-11 M to 10^-6 M in a solution of 50 mM HEPES (pH 7.4) containing 1% bovine serum albumin (BSA), 5 mM MgCl2, Trasylol (200,000 International Units), bacitracin (0.02 mg/mL) and phenylmethylsulfonylfluoride (0.02 mg/mL) for 25 min at 30° C. Using a filtration manifold, this mixture was filtered through a polyethyleneimine-washed GC/F filter (Whatman, Maidstone, England), and the residue remaining on the filter washed thrice with 5 mL cold HEPES buffer. The filter and a sample of the filter washings were then counted in a gamma counter. To assess non-specific binding, the assay was performed in the presence of unlabeled somatostatin-14 at 200 nM. Data analysis including Hill plots of the data provided inhibition constants (see Bylund & Yamamura, "Methods of receptor binding", in Methods in Neurotransmitter Receptor Analysis, Yamamura et al., eds., Raven Press: New York, 1990).

pKi: −log10 of the molar value. Starred links: 1 amine or outer side, 2 acyl side, 3 side chain; linkers in the order of their positions; H or OH if unused. Positions of bridges follow the written chain, without caps; N, C: chain ends. Non-standard residues stand in square brackets, D forms with d. Residues, ends and D or L forms follow the SMILES beside them. Chains are numbered I, II in the order given. *: point of attachment. DTPA = O=C(O)CN(CCN(CC(=O)O)CC(=O)O)CCN(CC(=O)O)CC(=O)*; X1 = O=C(C(=O)*)[C@@H](O)[C@H](O)[C@@H](O)CO; Phe(4-Cl) = N[C@@H](Cc1ccc(Cl)cc1)C(=O)O; 2Nal = N[C@@H](Cc1ccc2ccccc2c1)C(=O)O; d2Nal = N[C@H](Cc1ccc2ccccc2c1)C(=O)O; εLys = N[C@@H](CCCCN[*:1])C(=O)[*:2]; NMeF = CN[C@@H](Cc1ccccc1)C(=O)O; hCys = N[C@@H](CCS)C(=O)O; X2 = O=C(C[*:1])[*:2]; Acm = CC(=O)NC*

T1 sequence (P30680 whole entry): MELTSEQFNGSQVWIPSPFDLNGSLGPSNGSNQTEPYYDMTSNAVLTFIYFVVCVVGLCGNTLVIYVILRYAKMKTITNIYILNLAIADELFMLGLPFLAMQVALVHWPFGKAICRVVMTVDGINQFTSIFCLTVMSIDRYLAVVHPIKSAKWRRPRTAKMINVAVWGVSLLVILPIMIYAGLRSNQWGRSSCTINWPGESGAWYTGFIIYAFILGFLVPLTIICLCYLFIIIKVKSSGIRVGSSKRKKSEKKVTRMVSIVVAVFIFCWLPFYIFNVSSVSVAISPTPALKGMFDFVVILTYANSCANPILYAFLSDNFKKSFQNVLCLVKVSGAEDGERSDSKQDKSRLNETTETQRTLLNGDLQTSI

As a reminder, the pKi is −log10 of the Ki, conventionally taken in molar units. Read a low pKi as a large Ki. For `C[C@@H](O)[C@H](NC(=O)[C@H](Cc1ccccc1)NC(=O)[C@@H](NC(=O)[C@H](CCCCN)NC(=O)[C@@H](Cc1c[nH]c2ccccc12)NC(=O)[C@H](Cc1ccc(O)cc1)NC(=O)[C@H](Cc1ccc(Cl)cc1)NC(=O)[C@@H](Cc1ccccc1)NC(=O)C(=O)[C@@H](O)[C@H](O)[C@@H](O)CO)[C@@H](C)O)C(=O)NCCCC[C@H](N)C(=O)NCC(=O)N[C@@H](CS)C(N)=O` [(2-ketogulonyl)FD.Cpa.YWD KTFT(ε-K)GC.amide] (X1-[dF][Phe(4-Cl)]Y[dW]KTFT[εLys]GC-NH2), the pKi was 8.43 ((Re=O)-complexed peptides) and 8.57 (peptides not metal-complexed).

Compound `CC(C)[C@H](NC(=O)[C@H](CCCCN)NC(=O)[C@@H](Cc1c[nH]c2ccccc12)NC(=O)[C@H](Cc1ccc(O)cc1)NC(=O)[C@H](CS)NC(=O)[C@@H](Cc1ccc2ccccc2c1)NC(=O)CN(CCN(CCN(CC(=O)O)CC(=O)N[C@H](Cc1ccc2ccccc2c1)C(=O)N[C@@H](CS)C(=O)N[C@@H](Cc1ccc(O)cc1)C(=O)N[C@H](Cc1c[nH]c2ccccc12)C(=O)N[C@@H](CCCCN)C(=O)N[C@H](C(=O)N[C@@H](CS)C(=O)N[C@H](C(N)=O)[C@@H](C)O)C(C)C)CC(=O)O)CC(=O)O)C(=O)N[C@@H](CS)C(=O)N[C@H](C(N)=O)[C@@H](C)O` [(DTPA)(NalD.CYWD KVCT)2] had a negative logarithm of the Ki (pKi) (peptides not metal-complexed) of 8.14.

`C[C@@H](O)[C@H](NC(=O)[C@H](Cc1ccc2ccccc2c1)NC(=O)[C@@H](NC(=O)[C@H](CCCCN)NC(=O)[C@@H](Cc1c[nH]c2ccccc12)NC(=O)[C@H](Cc1ccc(O)cc1)NC(=O)[C@H](Cc1ccc(Cl)cc1)NC(=O)[C@@H](Cc1ccc2ccccc2c1)NC(=O)CN(CCN(CCN(CC(=O)O)CC(=O)O)CC(=O)O)CC(=O)O)[C@@H](C)O)C(=O)NCCCC[C@H](N)C(=O)NCC(=O)N[C@@H](CS)C(=O)N[C@@H](CCCCN)C(=O)N[C@@H](CCCCN)C(N)=O` [(DTPA)NalD.Cpa.YWD KT.Nal.T(ε-K)GCKK.amide] ({DTPA}-[d2Nal][Phe(4-Cl)]Y[dW]KT[2Nal]T[εLys]GCKK-NH2) showed a pKi (peptides not metal-complexed) of 8.70.

As to `CC(=O)NCSC[C@H](NC(=O)CNC(=O)[C@H](CSCNC(C)=O)NC(=O)[C@@H](NC(=O)[C@H](Cc1ccccc1)NC(=O)[C@@H](NC(=O)[C@H](CCCCN)NC(=O)[C@@H](Cc1c[nH]c2ccccc12)NC(=O)[C@H](Cc1ccc(O)cc1)NC(=O)[C@H](Cc1ccc(Cl)cc1)NC(=O)[C@@H](Cc1ccc2ccccc2c1)NC(=O)CN(CCN(CCN(CC(=O)O)CC(=O)O)CC(=O)O)CC(=O)O)[C@@H](C)O)[C@@H](C)O)C(N)=O` [(DTPA)NalD.Cpa.YWD KTFTCAcm GCAcm.amide] ({DTPA}-[d2Nal][Phe(4-Cl)]Y[dW]KTFTC(Acm)GC(Acm)-NH2), the pKi ((Re=O)-complexed peptides) is 8.51.

Compound `C[C@H](N)C(=O)N[C@@H](CCCCN)C(=O)N[C@@H](CS)C(=O)NCC(=O)NCC(=O)NCC(=O)N[C@H](Cc1ccccc1)C(=O)N[C@@H](Cc1ccc(Cl)cc1)C(=O)N[C@@H](Cc1ccc(O)cc1)C(=O)N[C@H](Cc1c[nH]c2ccccc12)C(=O)N[C@@H](CCCCN)C(=O)N[C@H](C(=O)N[C@@H](Cc1ccccc1)C(=O)N[C@H](C(N)=O)[C@@H](C)O)[C@@H](C)O` [AKCGGGFD.Cpa.YWD KTFT.amide] (H-AKCGGG[dF][Phe(4-Cl)]Y[dW]KTFT-NH2) gave a pKi (peptides not metal-complexed) of 8.85.

Consider `C[C@@H](O)[C@H](NC(=O)[C@H](Cc1ccccc1)NC(=O)[C@@H](NC(=O)[C@H](CCCCN)NC(=O)[C@@H](Cc1c[nH]c2ccccc12)NC(=O)[C@H](Cc1ccc(O)cc1)NC(=O)[C@H](Cc1ccc(Cl)cc1)NC(=O)[C@H](N)Cc1ccccc1)[C@@H](C)O)C(=O)N[C@@H](CS)C(=O)NCC(=O)N[C@@H](CS)C(N)=O` [FD.Cpa.YWD KTFTCGC.amide] (H-[dF][Phe(4-Cl)]Y[dW]KTFTCGC-NH2), for which, for the setting “peptides not metal-complexed”, the pKi was 8.32.

Take `CC(C)[C@@H]1NC(=O)[C@H](CCCCN)NC(=O)[C@@H](Cc2c[nH]c3ccccc23)NC(=O)[C@H](Cc2ccc(O)cc2)NC(=O)[C@H](Cc2ccccc2)N(C)C(=O)[C@H](CCSCC(=O)NCC(=O)NCC(=O)N[C@@H](CS)C(=O)N[C@@H](CCCCN)C(=O)N[C@@H](CCCCN)C(N)=O)NC1=O` [cyclo(N-Me)FYWD KV.Hcy(CH2 CO.GGCKK.amide)] (I: cyclo([NMeF]Y[dW]KV[hCys]) / II: GGCKK-NH2; linker I:6-II:N via X2): the pKi (peptides not metal-complexed) is 9.59.

Consider (DTPA).Aca.FD.Cpa.YWD KTFT(ε-K)GC.amide, for which the pKi ((Re=O)-complexed peptides) was 8.09.

Under “(Re=O)-complexed peptides”, (DTPA).FD.Cpa.YWD KTFT(ε-K)GC.amide had a pKi of 8.10.

As for (DTPA).NalD.Cpa.YWD KTFT(ε-K)GC.amide, where the note is “(Re=O)-complexed peptides”, the pKi was 7.96.

Compound Ac.DD DFD.Cpa.YWD KTFT(ε-K)GCKK.amide showed a pKi ((Re=O)-complexed peptides) of 8.85.

In turn, Ac.FD FYWD KTFTGGG(ε-K)KC.amide gave a negative logarithm of the Ki (pKi) ((Re=O)-complexed peptides) of 8.21.

The compound DD DFD.Cpa.YWD KTFT(ε-K)GCKK.amide showed a pKi ((Re=O)-complexed peptides) of 9.30.

In turn, FD.Cpa.YWD KTC(ε-K)CGC.amide gave a negative logarithm of the Ki (pKi) ((Re=O)-complexed peptides) of 9.43.

Take FD.Cpa.YWD KTC(ε-K)GC.amide: the pKi ((Re=O)-complexed peptides) is 9.44.

Turning to FD.Cpa.YWD KTC(ε-K)GCKK.amide, under “(Re=O)-complexed peptides”, the negative-log Ki (pKi) is 9.89.

Hca.NalD.Cpa.YWD KTFT(ε-K)GCKK, amide had a pKi ((Re=O)-complexed peptides) of 8.10.

Compound KD KK.NalD.Cpa.YWD KTFT(ε-K)GCDD.amide had a pKi ((Re=O)-complexed peptides) of 8.80.

As for KD KK.NalD.Cpa.YWD KTFT(ε-K)GCDDD.amide, the pKi ((Re=O)-complexed peptides) is 8.82.

For the setting “peptides not metal-complexed”, “KD KKK.NalD.Cpa.YWD KTFT(ε-K)GCKDKD.amide” gave a pKi of 8.31.

With “KD KKKFD.Cpa.YWD KTF.Nal.(ε-K)GCDDDD.amide”, the pKi ((Re=O)-complexed peptides) was 8.09.

On to “KDKKK.NalD.Cpa.YWD KTFT(ε-K)GCKDKD.amide”, for which, where the note is “(Re=O)-complexed peptides”, the pKi was 8.42.

Take NalD.Cpa.YWD KTFT(ε-K)GCKK.amide: the pKi ((Re=O)-complexed peptides) is 8.66.

For the origin of these results see patent publication US6241965A, “Somatostatin derivatives and their radiolabelled products” (Diatide, Inc., priority 1996, dated 2001).
